Columns and labels:
[1] = system: Enterococcus faecium MDR Van A ATCC 51559; test: MIC assay, E. faecium MDR Van A ATCC 51559; type: cell-based; conditions: 24 h incubation, visual reading
Method in brief: (§1)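 Overnight MHB cultures at 37° C were diluted 40-fold and grown 2-3 hrs to mid-log, then added at 5×10e5 CFU/mL to twofold compound dilutions (8 to 0.003 μg/ml). Plates were incubated 24 h at 37° C and MIC scored by eye.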

[2] = system: Staphylococcus aureus MRSA ATCC 43300; test: MIC assay, S. aureus MRSA ATCC 43300; type: cell-based; conditions: 24 h incubation, visual reading
Method in brief: as §1

MRSA (Strain ATCC 43300) = test: Murine thigh infection model (MRSA); type: in vivo, Staphylococcus aureus; conditions: neutropenic CD1 mice
Protocol: Summary: Adult (8 week old) female CD1 mice were made neutropenic by two injections of cyclophosphamide 4 days and 1 day prior to infection. An inoculum of 10^5 cfu MRSA (Strain ATCC 43300) was injected intramuscularly into both left and right thighs of all mice. […] After an additional two hours, a 50 μL sample of blood was obtained from the tail bleed to analyse for presence of antibiotic compound. […] Thighs were then removed, weighed and homogenised in a fixed volume of saline. The homogenate solution was filtered, diluted and seeded onto agar plates, which were incubated overnight at 37° C. Colony counts were used to establish the cfu in the thigh homogenates, the cfu/thigh, and the cfu/g of thigh.
Compound preparation: Cyclophosphamide monohydrate (Sigma) was dissolved in sterile saline to a concentration of 30 mg/mL. Likewise, vancomycin (Sigma) and MCC compounds were also dissolved in sterile saline to a final concentration of 60 mg/mL and 18.5 mg/mL respectively. All compounds were prepared in low binding Eppendorf tubes and kept at −20° C. until used.
In vivo experimental assay: Eight week old female outbred CD1 mice (UQBR-AIBN) were rendered neutropenic by injecting two doses of cyclophosphamide intraperitoneally 4 days (150 mg/kg) and 1 day (100 mg/kg) prior to experimental infection. The infection model using MRSA was established by intramuscular injection of 50 μL of early-log-phase bacterial MRSA suspension (around 2×10^6 cfu/mL) in saline into both thigh muscles. […] Untreated animals received equivalent volume of saline (Baxter). The mice were monitored for signs of normal behaviour (i.e. grooming, eating, drinking, sleeping, and alertness) during and following dosing. Two hours after saline/antibiotic treatment, 0.05 mL of blood was collected by tail incision. 24 hours after MRSA infection, mice were euthanized and blood collected from the heart by cardiac puncture (saline group) or by tail incision (Vancomycin and MCC compound treated groups) as outlined in FIG. 1. For each mouse, both thighs were collected aseptically by cutting the leg at the hip and knee, placed in 10 mL of cold sterile saline and the individual weight of each thigh recorded.
Preparation of injectable MRSA solution: An MRSA subculture bacterial isolate (ATCC43300) was taken from the storage at −80° C. and freshly seeded on agar plates for overnight (O/N) growth. From the O/N culture preparation, a single colony was diluted into 10-12 mL of Mueller Hinton broth (MHB) and incubated O/N at 37° C. A log-phase subculture was obtained by adding 100 μL of O/N subculture in 10 mL MHB and incubated for a further 2-3 hours. Finally, the OD600 value of the bacterial suspension was determined and the colony forming units per millilitre (cfu/mL) extrapolated. A full dilution of the bacterial cell suspension in saline was achieved by washing (3220×g for 10 min) and the OD600 in saline determined. The suspension was then diluted out accordingly in order to achieve a 2×10^6 cfu/mL solution (10^5 cfu in 50 μL/thigh).
Thus, 10 μL of the injectable MRSA suspension was diluted down to 10-1000 fold, each dilution plated out onto agar plates and incubated at 37° C. for 24 hours.
Thigh homogenates and CFU determination: Thighs were homogenized at 20,000 rpm for 15 seconds using a Polytron MR2500E using a […] probe (all Kinematica).

[3] = system: Streptococcus pneumoniae MDR ATCC 700677; test: MIC assay, S. pneumoniae MDR ATCC 700677; type: cell-based; conditions: 24 h incubation, visual reading
Method in brief: as §1

[4] = single subcutaneous dose 10 mg/kg
[5] = single subcutaneous dose 50 mg/kg

Row | SMILES | Minimum Inhibitory Concentration (MIC) E. faecium ATCC51559 [1] | Minimum Inhibitory Concentration (MIC) Staph. aureus ATCC43300 [2] | Average Reduction log Δcfu MRSA/thigh after 26 h (MRSA (Strain ATCC 43300); [4]) | Minimum Inhibitory Concentration (MIC) S. pneumoniae ATCC 700677 [3] | Average Reduction log Δcfu MRSA/thigh after 26 h (MRSA (Strain ATCC 43300); [5]) | Average Reduction log Δcfu MRSA/thigh after 26 h (MRSA (Strain ATCC 43300); single subcutaneous dose 25 mg/kg)
1 | CN[C@H](CC(C)C)C(=O)N[C@H]1C(=O)N[C@@H](CC(N)=O)C(=O)N[C@H]2C(=O)N[C@H]3C(=O)N[C@H](C(=O)N[C@H](C(=O)NCCCC[C@H](NC(=O)[C@H](CCCCN(C)C)NC(=O)c4ccc(Oc5ccccc5)cc4)C(=O)O)c4cc(O)cc(O)c4-c4cc3ccc4O)[C@H](O)c3ccc(c(Cl)c3)Oc3cc2cc(c3O[C@@H]2O[C@H](CO)[C@@H](O)[C@H](O)[C@H]2O[C@H]2C[C@](C)(N)[C@H](O)[C@H](C)O2)Oc2ccc(cc2Cl)[C@H]1O [MCC_007221] | x (x = >4) | xxx (xxx = 0.1-<1) | x (x = 0-2) | xx (xx = 1-4) | – | –
2 | CCCCCCCCC(=O)NC(CCCCN(C)C)C(=O)NCCCNC(=O)C1NC(=O)C2NC(=O)C(NC(=O)C3NC(=O)C(CC(N)=O)NC(=O)C(NC(=O)C(CC(C)C)NC)C(O)c4ccc(c(Cl)c4)Oc4cc3cc(c4OC3OC(CO)C(O)C(O)C3OC3CC(C)(N)C(O)C(C)O3)Oc3ccc(cc3Cl)C2O)c2ccc(O)c(c2)-c2c(O)cc(O)cc21 (stereo not drawn) [MCC_007338] | x (x = >4) | xxx (xxx = 0.1-<1) | xx (xx = 2-4) | xxx (xxx = 0.1-<1) | – | –
3 | CNC(CC(C)C)C(=O)NC1C(=O)NC(CC(N)=O)C(=O)NC2C(=O)NC3C(=O)NC(C(=O)NC(C(=O)NCCCNC(=O)C(CCCCN)NC(=O)C(CCCCN)NC(=O)CC4CCCCC4)c4cc(O)cc(O)c4-c4cc3ccc4O)C(O)c3ccc(c(Cl)c3)Oc3cc2cc(c3OC2OC(CO)C(O)C(O)C2OC2CC(C)(N)C(O)C(C)O2)Oc2ccc(cc2Cl)C1O (stereo not drawn) [MCC_005363] | x (x = >4) | xxx (xxx = 0.1-<1) | – | xxx (xxx = 0.1-<1) | xxx (xxx = 4-6) | –
4 | CCCCCCCCCC(=O)N[C@@H](CCCCN)C(=O)NCCNC(=O)[C@H]1NC(=O)[C@H]2NC(=O)[C@H](NC(=O)[C@@H]3NC(=O)[C@H](CC(N)=O)NC(=O)[C@H](NC(=O)[C@@H](CC(C)C)NC)[C@H](O)c4ccc(c(Cl)c4)Oc4cc3cc(c4O[C@@H]3O[C@H](CO)[C@@H](O)[C@H](O)[C@H]3O[C@H]3C[C@](C)(N)[C@H](O)[C@H](C)O3)Oc3ccc(cc3Cl)[C@H]2O)c2ccc(O)c(c2)-c2c(O)cc(O)cc21 [MCC_005162] | xx (xx = 1-4) | xxxx (xxxx = 0.01-<0.1) | xxx (xxx = 4-6) | xxxx (xxxx = 0.01-<0.1) | – | –
5 | CCCCCCCCC(=O)N[C@@H](CCCCN)C(=O)N[C@@H](CCCCN)C(=O)N[C@@H](CCCCNC(=O)[C@H]1NC(=O)[C@H]2NC(=O)[C@H](NC(=O)[C@@H]3NC(=O)[C@H](CC(N)=O)NC(=O)[C@H](NC(=O)[C@@H](CC(C)C)NC)[C@H](O)c4ccc(c(Cl)c4)Oc4cc3cc(c4O[C@@H]3O[C@H](CO)[C@@H](O)[C@H](O)[C@H]3O[C@H]3C[C@](C)(N)[C@H](O)[C@H](C)O3)Oc3ccc(cc3Cl)[C@H]2O)c2ccc(O)c(c2)-c2c(O)cc(O)cc21)C(=O)O [MCC_005226] | x (x = >4) | xxx (xxx = 0.1-<1) | x (x = 0-2) | xxx (xxx = 0.1-<1) | – | –
6 | CNC(=O)[C@H](CCCCNC(=O)[C@H]1NC(=O)[C@H]2NC(=O)[C@H](NC(=O)[C@@H]3NC(=O)[C@H](CC(N)=O)NC(=O)[C@H](NC(=O)[C@@H](CC(C)C)NC)[C@H](O)c4ccc(c(Cl)c4)Oc4cc3cc(c4O[C@@H]3O[C@H](CO)[C@@H](O)[C@H](O)[C@H]3O[C@H]3C[C@](C)(N)[C@H](O)[C@H](C)O3)Oc3ccc(cc3Cl)[C@H]2O)c2ccc(O)c(c2)-c2c(O)cc(O)cc21)NC(=O)[C@H](CCCCN)NC(=O)[C@H](CCCCN)NC(=O)[C@H](CCCCNC(=O)c1ccc(Oc2ccccc2)cc1)NC(=O)c1ccc(Oc2ccccc2)cc1 [MCC_000310] | xxx (xxx = 0.1-<1) | xxxxx (xxxxx = <0.01) | – | xxxxx (xxxxx = <0.01) | – | x (x = 0-2)
7 | CNC(CC(C)C)C(=O)NC1C(=O)NC(CC(N)=O)C(=O)NC2C(=O)NC3C(=O)NC(C(=O)NC(C(=O)NCCCNC(=O)C(CCCCN)NC(=O)C(CCCCN)NC(=O)c4ccc(Cl)cc4)c4cc(O)cc(O)c4-c4cc3ccc4O)C(O)c3ccc(c(Cl)c3)Oc3cc2cc(c3OC2OC(CO)C(O)C(O)C2OC2CC(C)(N)C(O)C(C)O2)Oc2ccc(cc2Cl)C1O (stereo not drawn) [MCC_005362] | xx (xx = 1-4) | xxx (xxx = 0.1-<1) | x (x = 0-2) | xxx (xxx = 0.1-<1) | xxx (xxx = 4-6) | –
8 | CCCCCCCCCCCC(=O)N[C@@H](CCCCN)C(=O)N[C@@H](CCCCN)C(=O)N[C@@H](CCCCNC(=O)[C@H]1NC(=O)[C@H]2NC(=O)[C@H](NC(=O)[C@@H]3NC(=O)[C@H](CC(N)=O)NC(=O)[C@H](NC(=O)[C@@H](CC(C)C)NC)[C@H](O)c4ccc(c(Cl)c4)Oc4cc3cc(c4O[C@@H]3O[C@H](CO)[C@@H](O)[C@H](O)[C@H]3O[C@H]3C[C@](C)(N)[C@H](O)[C@H](C)O3)Oc3ccc(cc3Cl)[C@H]2O)c2ccc(O)c(c2)-c2c(O)cc(O)cc21)C(=O)O [MCC_000347] | xx (xx = 1-4) | xxxxx (xxxxx = <0.01) | xxxx (xxxx = >6) | xxxx (xxxx = 0.01-<0.1) | – | –

Reference: US10947271B2, “Antibacterial agents” (THE UNIVERSITY OF QUEENSLAND, priority 2014, dated 2021)
